Measured values as given in patent US20130096070A1, “PEPTIDE TARGETING OF INNER EAR CELLS” (priority 2009, published 2013).
No end group written: not given here.

Columns and labels:
Organ of Corti = experiment: Immunohistochemistry identification of phage binding regions in mouse inner ear (Organ of Corti); type: in vivo; settings: phage 1×10^9 pfu injected into round window of neomycin-treated mice, anti-M13 immunostaining 1 hour after inoculation
Protocol: (§1) Candidate 7-mer peptide epitopes were selected from the BLAST queried sequences. Colonies were amplified in 20 ml LB media and recovered as previously described. Phage (1×10^9 pfu) were injected into the round window of mice previously treated with 1 μl 0.01 M neomycin injected into the posterior channel 48 hours prior to phage innoculation. Mice were sacrificed by intracardiac perfusion with 4% PBS buffered paraformaldehyde 1 hour after phage inoculation. The temporal bones were isolated and decalcified in Calex (Fisher Scientific, Pittsburgh, Pa.) for 24 hours. The temporal bones were embedded in paraffin and sectioned. Primary antibody directed against the M13 protein (rabbit anti-M13) in 1/100 concentration was added to tissue samples and allowed to incubate for 12 hrs at 4° C. The samples were washed in PBS and incubated with 1/50 concentration fluorescent secondary antibody (goat anti-rabbit, FITC) for 12 hrs at 4° C. After washing, tissue sections were visualized and photographed via fluorescent microscopy.
To determine the potential for identified peptide sequences to bind […] be purified individual batches of phage and injected them into the perilymph via the round window. The animals were allowed to recover and were then fixed via perfusion. Sections of the inner ear were immunostained for the presence phage to determine if the phage had been able to localize to supporting cells in vivo. […] The most common pattern of distribution that was seen was binding to the basement membrane.

[1] = tested on: mouse saccule and utricle cultures; experiment: Phage display panning of mouse saccule and utricle cultures, sequencing of colonies; type: binding; settings: colonies with this sequence among one hundred colonies sequenced after four rounds of panning
Protocol: C57B1/6 Mice were purchased from Jackson Laboratory (Bar Harbour, Me.). At 8 weeks of age the mice were sacrificed and saccule and utricles were isolated under direct visualization. The cells were cultured in 100 μl DMEM/0.001 M neomycin for 48 hours as is standard. All animal protocols were approved by the University of Kansas animal research advisory committee.
A phage library (New England Biolabs, Beverly, Mass.) displaying random 7-mer peptides attached to the NH2-terminus of the pIII protein of the filamentous M13 bacteriophage was used for panning with mouse inner ear cells. In round 1 of panning, 2×10^11 plaque-forming units of the phage library in 200 μl of 1×PBS buffer were added to the inner ear cells and were incubated for 4 h at 4° C. with shaking. The cells were washed 10× with Tris-buffered saline/0.1% Tween under direct visualization and the remaining bound phage were eluted for 10 min with 100 μl of 0.2 M glycine-HCl, pH 2.2, and neutralized with 15 μl of 1 M Tris-HCl, pH 9. A 10 μl aliquot was used for tittering and the remaining eluate was used to infect early log phase ER2738 host bacteria in 20 ml LB media and amplified for 4.5 h at 37° C. with shaking. Bacteria were removed by pellet centrifugation 2×10 min at 10,000 g. The supernantant was added to ⅙ quantity 20% (w/v) polyethylene glycol-8000, 2.5 M NaCl. After overnight incubation at 4° C., the phage was pelleted by centrifugation at 15 min at 10,000 g, and resuspended in 200 μl TBS. Amplified phage product was tittered on X-gal/IPTG plates. A 10 μl aliquot from the phage pool was used to titer phage pfu/μl before and after phage amplification in E. coli. In subsequent rounds 2×10^11 plaque-forming units of the amplified phage pool from the previous round were added to mouse inner ear cells and panned was performed as previously described. All panning experiments were performed in duplicate.
After 4 rounds of panning, isolated colonies were streak plated on X-gal/IPTG plates. Individual colonies were used to infect early log phase ER2738 host bacteria in 4 ml LB media and amplified for 4.5 h at 37° C. The bacteria was pelleted by centrifugation and phage recovered from the supernatant using QIAprep Spin M13 kit (Qiagen, Valencia, Calif.) and resuspended in 50 μl molecular grade water. ssDNA quantity was determined by absorption spectrophotometry. The 7-mer peptide DNA coding regions were sequenced using a −96 gIII sequencing primer (5′-CCCTCATAGTTAGCGTAACG-3′). These sequences were translated and queried on the BLAST protein database (NCBI).
One hundred colonies were sequenced (Table 1). There were 23 colonies which translated to the peptide sequence t-v-p-q-l-t-t, which was homologous to the protein laminin. Eleven colonies which translated to the peptide sequence s-t-t-k-l-a-l, which was homologous to a sodium/hydrogen exchanger protein. Eight colonies which translated to the peptide sequence m-e-g-y-i-h-r, which was homologous to the protein cathepsin L. Two colonies each that translated to the peptide sequences h-a-i-y-p-r-h, h-s-r-l-l-d-q, i-q-s-p-h-f-f and y-a-a-h-r-s-h, which were homologous to the proteins itchy 3, discs large homolog, protocadherin and myelin transcription factor 1, respectively. The remaining colony sequences occurred only once, however within these sequences, several translated to peptides that had homology to the same protein. For example, a-h-p-h-h-s-m and h-p-h-h-r-i-f both contained the peptide sequence h-p-h-h with homology to mitogen activated protein kinase 8.

vestibular hair cells = experiment: Vestibular hair cell counts after intracochlear neomycin and adenovector atoh1 delivery; settings: aminoglycoside (neomycin 10^-3 M, 2 μl into inner ear) only, n=5; untreated controls 21.8+2
Protocol: Characterization of atoh1/math1 effects were as follows. Unilateral vestibular damage was induced by injecting 2 μl of neomycin (10^−3 M) in to the inner ear of mice. After inducing unilateral vestibular dysfunction mice received an intracochlear injection of an advanced generation adenovector carrying atoh1 driven by a human CMV promoter (Admath1.11D) via the round window membrane into the scala tympani. […] After one month recovery, animals were sacrificed and processed for histology. […] Cells were identified by position of the nucleus and every fifth section was counted and expressed as cell number per 100 μm length of neuroepithelium.

[2] = mouse, in vivo
Source text: As a screening test for balance function, mice were swim tested by dropping them from a fixed height into an opaque pool of water. […] Animals with impaired vestibular function are known to have to prolonged swim times. Mice were swim tested two months after aminoglycoside ablation followed by no treatment or treatment with Ad math1.11D.

[3] = tested on: myosin VII positive hair cells; settings: mouse, in vivo
Protocol: Briefly, mice were treated with an injection of neomycin 10^−3 M into the scala tympani. After 5 days animals were re-anesthetized and 1 μl of Ad.math1.11d (108 pu) were delivered via a fenestration in the posterior semicircular canal. After 4 weeks, animals were sacrificed and then processed for myosin VII immunohistochemistry.

Macular Organs = experiment: Immunohistochemistry identification of phage binding regions in mouse inner ear (Macular Organs); type: in vivo; settings: phage 1×10^9 pfu injected into round window of neomycin-treated mice, anti-M13 immunostaining 1 hour after inoculation
Protocol: as §1
To determine the potential for identified peptide sequences to bind in vitro be purified individual batches of phage and injected them into the perilymph via the round window. The animals were allowed to recover and were then fixed via perfusion. […]

Molecule | Phage binding site, Organ of Corti (Organ of Corti) | # of Common Sequences [1] | also measured
PPRPIPM | No binding | – | –
yaahrsh: phage pIII NH2 terminal 7 amino acid peptide (YAAHRSH) | – | 2 | –
MPIPRPP [phage pIII NH2 terminal 7 amino acid peptide] | – | 1 | –
HisAlaIleTyrProArgHis (HAIYPRH; printed: HisAlaIleTyrProArgHis) [phage pIII NH2 terminal 7 amino acid peptide] | – | 2 | –
NC[C@@H]1O[C@H](O[C@H]2[C@@H](O)[C@H](O[C@@H]3[C@@H](O)[C@H](N)C[C@H](N)[C@H]3O[C@H]3O[C@H](CN)[C@@H](O)[C@H](O)[C@H]3N)O[C@@H]2CO)[C@H](N)[C@@H](O)[C@@H]1O [aminoglycoside, neomycin] | – | – | average hair cell counts, serially sectioned saccules (vestibular hair cells): 2.2+2 /100 μm; swim time (time to initiate purposeful swimming) [2]: 22+4.2 seconds; myosin VII positive cells in macular organs [3]: only occasional myosin VII positive cells
THQARSV [phage pIII NH2 terminal 7 amino acid peptide] | No binding | 1 | –
HPHHRIF [phage pIII NH2 terminal 7 amino acid peptide] | No binding | 1 | –
ProThrProMeThrLeuTyr | – | – | Phage binding site, Macular Organs (Macular Organs): No binding
iqsphff: phage pIII NH2 terminal 7 amino acid peptide (IQSPHFF) | – | 2 | –
getrapl | – | 1 | –
hsrlldq: phage pIII NH2 terminal 7 amino acid peptide (HSRLLDQ) | – | 2 | –
ALQYHNL [phage pIII NH2 terminal 7 amino acid peptide] | No binding | 1 | –
SEGRLYK [phage pIII NH2 terminal 7 amino acid peptide] | No binding | 1 | –
tvpqltt: phage pIII NH2 terminal 7 amino acid peptide (TVPQLTT) | – | 23 | –
ahphhsm: phage pIII NH2 terminal 7 amino acid peptide (AHPHHSM) | – | 1 | –
SNQLLMT [phage pIII NH2 terminal 7 amino acid peptide] | No binding | 1 | –
STTKLAL [phage pIII NH2 terminal 7 amino acid peptide] | No binding | 11 | –
megyihr: phage pIII NH2 terminal 7 amino acid peptide (MEGYIHR) | – | 8 | –
